Measured values reported in US7018989B2, “Chemical compounds” (University College Cardiff Consultants, LTD, priority 1995, dated 2006).
pEC50: −log10 of the molar value. Where two headings read alike, the source gives them in different places.

Tests used:
HIV-1 = assay: microbe, parasite or virus in culture; conditions: read-out: HIV1 CEM: EC50 for inhibition of HIV-1 in CEM cells
Experimental: (§1) Cells were infected with HIV-1 as previously described [Balzarini et al. AIDS (1991), 5, 21–28]. Briefly, 5×10^5 cells per milliliter were infected with HIV-1 or HIV-2 at 100 CCID50 (50% cell culture infective dose) per milliliter of cell suspension. Then 100 μL of the infected cell suspension was transferred to microtiter plate wells and mixed with 100 μL of the appropriate dilutions of the test compounds. After 4 days giant cell formation was recorded microscopically in the HIV-infected cell cultures [CEM], and after 5 days the number of viable cells was determined by trypan blue staining of the HIV-infected cell cultures [MT4].
(§2) The data columns are, in order: • HIV1 MT4: EC50 in μM for inhibition of HIV-1 in MT4 cells. • HIV2 MT4: EC50 in μM for inhibition of HIV-2 in MT4 cells. • CC50 MT4: CC50 in μM for toxicity to MT-4 cells. • HIV1 CEM: EC50 in μM for inhibition of HIV-1 in CEM cells. • HIV2 CEM: EC50 in μM for inhibition of HIV-2 in CEM cells. • HIV2 CEM-TK-: EC50 in μM for inhibition of HIV-2 in CEM/TK^− cells. • CC50 CEM: CC50 in μM for toxicity to CEM cells. • EC50 MSV: EC50 in μM for inhibition of MSV • MCC MSV: Minimum cytotoxic concentration in MSV assay

HIV-2 [1] = assay: Inhibition of HIV-2 in CEM cells (giant cell formation); assay type: cell-based; conditions: read-out: HIV2 CEM: EC50 for inhibition of HIV-2 in CEM cells
Experimental: as §1, §2

HIV-2 [2] = assay: Inhibition of HIV-2 in CEM/TK- cells; assay type: cell-based
Experimental: as §1, §2

CEM cells = assay: Toxicity to CEM cells; assay type: cell-based, human
Experimental: as §1, §2

MSV = assay: Inhibition of MSV (in vitro); assay type: cell-based, Moloney Sarcoma Virus
Description: as §2

[3] = Minimum cytotoxic concentration in MSV assay; assay type: cell-based
Description: as §2, with “CEM/TK^-” for “CEM/TK^−”, “[…]:” for “MSV • MCC MSV:”

[4] = Table 6, mean of two or more repeat experiments
[5] = Table 6, mean of two or more repeat experiments, read-out: HIV2 CEM-TK-: EC50 for inhibition of HIV-2 in CEM/TK^− cells
[6] = CEM/TK- cells, HIV-2, read-out: HIV2 CEM-TK-: EC50 for inhibition of HIV-2 in CEM/TK- cells

SMILES	pEC50 (HIV-1; [4])	pEC50 (HIV-2 [1]; [4])	pEC50 (HIV-2 [2]; [5])	CC50 (CEM cells; [4]) [µM]	pEC50 (MSV; Table 6)	MCC MSV: Minimum cytotoxic concentration in MSV assay ([3]; Table 6)	pEC50 (HIV-1; CEM cells, HIV-1)	pEC50 (HIV-2 [1]; CEM cells, HIV-2)	pEC50 (HIV-2 [2]; [6])	CC50 (CEM cells; CEM cells) [µM]	pEC50 (MSV; MSV)	MCC MSV: Minimum cytotoxic concentration in MSV assay ([3]; MSV assay)
CCOC(=O)CCNP(=O)(OCC1C=CC(n2cc(C)c(=O)[nH]c2=O)O1)Oc1ccccc1 (stereo not drawn) [Compound 950]	3.60	≤ 3.60	< 3.60	> 250	< 4.00	>100	–	–	–	–	–	–
COC(=O)COP(=O)(OCC1C=CC(n2cc(C)c(=O)[nH]c2=O)O1)Oc1ccccc1 (stereo not drawn) [Compound 980]	4.56	4.30	< 3.60	> 250	< 4.00	>100	–	–	–	–	–	–
Cc1cn(C2CC(N=[N+]=[N-])C(COP(=O)(O)NC(C)C(=O)O)O2)c(=O)[nH]c1=O (stereo not drawn) [Cpd 1071]	–	–	–	–	–	–	3.94	5.00	3.60	> 250	< 3.60	>100
COC(=O)C(C)NP(=O)(OC[C@@H]1CC[C@H](n2cnc3c(N)ncnc32)O1)Oc1ccccc1 (stereo partly drawn) [Compound 1093, 2′,3′-dideoxy Adenosine 5′-(phenylmethoxyalaninyl) phosphoramidate]	–	–	–	–	–	–	7.80	7.46	7.26	2.57	5.71	>20
Nc1ncnc2c1ncn2C1CCC(CO)O1 (stereo not drawn) [Cpd 1069]	–	–	–	–	–	–	5.40	5.10	4.76	> 250	4.61	>100
COC(=O)C(C)NP(=O)(O)OCC1C=CC(n2cc(C)c(=O)[nH]c2=O)O1 (stereo not drawn) [Compound 1129]	5.70	5.35	4.30	> 250	4.32	>100	–	–	–	–	–	–
COC(=O)CCC(NP(=O)(OCC1C=CC(n2cc(C)c(=O)[nH]c2=O)O1)Oc1ccccc1)C(=O)OC (stereo not drawn) [Compound 1081]	5.10	5.27	4.80	≥ 250	4.05	>100	–	–	–	–	–	–
COC(=O)CC(NP(=O)(OCC1C=CC(n2cc(C)c(=O)[nH]c2=O)O1)Oc1ccccc1)C(=O)OC (stereo not drawn) [Compound 1078]	6.26	6.19	6.48	209	4.50	>100	–	–	–	–	–	–
Cc1cn(C2C=CC(COP(=O)(O)N[C@H](C)C(=O)O)O2)c(=O)[nH]c1=O (stereo partly drawn) [Compound 1095]	5.89	5.80	5.00	> 250	6.38	>100	–	–	–	–	–	–
Cc1cn(C2C=CC(COP(=O)(O)NC(CCC(=O)O)C(=O)O)O2)c(=O)[nH]c1=O (stereo not drawn) [Compound 1083]	5.07	5.26	< 3.60	≥ 250	4.26	>100	–	–	–	–	–	–
CCOC(=O)COP(=O)(OCC1C=CC(n2cc(C)c(=O)[nH]c2=O)O1)Oc1ccccc1 (stereo not drawn) [Compound 981]	4.90	4.90	3.82	≥ 250	< 4.00	>100	–	–	–	–	–	–
CCOC(=O)CN(C)P(=O)(OC[C@@H]1C=C[C@H](n2cc(C)c(=O)[nH]c2=O)O1)Oc1ccccc1 (stereo partly drawn) [Compound 1133, 2′,3′-dideoxy-2′,3′-didehydrothymidine 5′-(phenylethoxysarcosinyl phosphate)]	4.12	4.06	< 3.60	≥ 250	< 4.00	>100	–	–	–	–	–	–
Cc1cn(C2C=CC(COP(=O)(O)NC(C)C(=O)OCc3ccccc3)O2)c(=O)[nH]c1=O (stereo not drawn) [Compound 1137]	6.02	5.80	5.10	≥ 250	4.80	>100	–	–	–	–	–	–
